For data set [1], the target named is plasma kallikrein (Homo sapiens, UniProt P03952). The note with it: WO 89/10374; cited from earlier work.
For data set [2], the target named is T1, granulocyte elastase (Homo sapiens, UniProt P08246).
T1 sequence (P08246 30-267): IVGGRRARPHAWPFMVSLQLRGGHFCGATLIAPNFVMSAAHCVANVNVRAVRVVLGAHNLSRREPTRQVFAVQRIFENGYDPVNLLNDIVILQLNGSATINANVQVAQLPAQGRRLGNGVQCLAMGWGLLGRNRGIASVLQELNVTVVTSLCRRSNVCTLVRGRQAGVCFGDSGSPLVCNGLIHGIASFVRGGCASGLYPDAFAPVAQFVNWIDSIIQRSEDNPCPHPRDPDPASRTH
The note with it: cited from earlier work.

Data set [3] concerns collagenase. The note with it: Wenzel and Tschesche 1981; cited from earlier work.
In data set [4] the test system is Trypsin. Nature of the data set: Protease inhibitory activity assay, trypsin. In kind it is biochemical. The note with it: 1 μM inhibitor; trypsin 8 nM; H-D-Val-Leu-Lys-pNA 0.6 mM; 25° C. The protocol:
Trypsin (8 nM) H--D--Val--Leu--Lys--pNA
(§1) Inhibition assays were performed in microtiter wells in a total volume of 300 μl in 10 mM NaCl, 50 mM Tris-HCl (pH 7.4), 0.01% TWEEN80 (Polyoxyethylenesorbitan monoleate). The reactions were incubated at 25° C. for ten minutes after which the appropriate chromogenic substrate was added to the final concentration listed in Table 2 and the final reaction was incubated for thirty minutes at 25° C. Amidolytic activity was measured at 405 nm or by fluorescence Em at 460 nm.

Data set [5] concerns the target T2, Plasmin (Homo sapiens, UniProt P00747).
T2 construct: Plasmin (10 nM); purchased Kabi
As to the kind of experiment: Protease inhibitory activity assay, plasmin. In kind it is biochemical. The settings on record: 1 μM inhibitor; plasmin 10 nM; H-D-Val-Leu-Lys-pNA 0.6 mM; 25° C. The protocol: H--D--Val--Leu--Lys--pNA
as §1

Data set [6] addresses T3, Leukocyte Elastase (Homo sapiens, UniProt P08246).
T3 construct: purified at Novo Nordisk A/S; tissue Novo Nordisk A/S (purified there); host or cells: leukocytes
T3 sequence (P08246 30-267): T1 sequence (P08246 30-267)
As to the kind of experiment: Protease inhibitory activity assay, leukocyte elastase. In kind it is biochemical. The settings on record: 1 μM inhibitor; MeO-Suc-Ala-Ala-Pro-Val-pNA 0.6 mM; 25° C. On the procedure: MeO--Suc--Ala--Ala--Pro--Val--pNA
(§2) purified at Novo Nordisk A/S
as §1

In data set [7] the test system is GL Kallikrein (glandular kallikrein). As to the kind of experiment: Protease inhibitory activity assay, glandular kallikrein. The class given is biochemical. The note with it: 1 μM inhibitor; GL kallikrein 1 U/ml; H-D-Val-Leu-Arg-pNA 0.6 mM; 25° C. The protocol:
H--D--Val--Leu--Arg--pNA
(§3) Abbreviations in Table 2: rec. refers to recombinant, GL kallikrein refer
(§4) to glandular kallikrein, and PL kallikrein refers to plasma kallikrein.
as §1

The target in data set [8] is T4, Cathepsin G (Homo sapiens, UniProt P08311).
T4 construct: purified at Novo Nordisk A/S; tissue Novo Nordisk A/S (purified there); host or cells: leukocytes (by the cited method)
T4 sequence (P08311 21-255): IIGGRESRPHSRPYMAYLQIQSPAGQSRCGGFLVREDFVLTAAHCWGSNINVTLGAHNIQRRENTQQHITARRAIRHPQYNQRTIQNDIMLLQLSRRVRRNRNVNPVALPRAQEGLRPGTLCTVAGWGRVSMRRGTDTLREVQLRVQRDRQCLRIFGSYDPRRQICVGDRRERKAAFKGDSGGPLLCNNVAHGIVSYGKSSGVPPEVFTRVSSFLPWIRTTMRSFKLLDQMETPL
Nature of the data set: Protease inhibitory activity assay, cathepsin G. In kind it is biochemical. The settings on record: 1 μM inhibitor; Suc-Ala-Ala-Pro-Phe-pNA 0.6 mM; 25° C. On the procedure: Cathepsin G Suc--Ala--Ala--Pro--Phe--pNA
as §2
(0.6 mM) (SEQ ID NO: 19)
as §1

The target of data set [9] is T5, PL Kallikrein (plasma kallikrein) (Homo sapiens, UniProt P03952).
T5 construct: purchased Kabi
Nature of the data set: Protease inhibitory activity assay, plasma kallikrein. In kind it is biochemical. The settings on record: 1 μM inhibitor; PL kallikrein 3 nM; H-D-Pro-Phe-Arg-pNA 0.6 mM; 25° C. The protocol:
(§5) H--D--Pro--Phe--Arg--pNA
as §3, §4, §1

Data set [10] concerns the target T6, Urokinase (Homo sapiens, UniProt P00749).
T6 construct: purchased Serono, Freigung, Germany
As to the kind of experiment: Protease inhibitory activity assay, urokinase. The settings on record: 1 μM inhibitor; urokinase 5 nM; <Glu-Gly-Arg-pNA 0.6 mM; 25° C. The class given is biochemical. On the procedure: as §1

Data set [11] concerns Chymotrypsin. Nature of the data set: Protease inhibitory activity assay, chymotrypsin. The note with it: 1 μM inhibitor; chymotrypsin 2.5 nM; MeO-Suc-Arg-Pro-Tyr-pNA 0.6 mM; 25° C. The class given is biochemical. On the procedure: MeO--Suc--Arg--Pro--Tyr--pNA
as §1

For data set [12], the target named is T7, human Factor XIa (Homo sapiens, UniProt P03951).
T7 construct: human Factor XIa (1 nM); purchased Dr. Kazuo Fujikawa, University of Washington, Seattle, WA
As to the kind of experiment: Protease inhibitory activity assay, Factor XIa. The note with it: 1 μM inhibitor; Factor XIa 1 nM; Boc-Glu(OBzl)-Ala-Arg-MCA 0.12 mM; 25° C. In kind it is biochemical. The protocol:
Boc--Glu(OBzl)--Ala--Arg--MCA
as §1

The conditions of data set [13]: high doses; cardiac surgery including cardiopulmonary bypass operations; cited from earlier work.
Data set [14] concerns the target T8, rec. human Factor VIIa (Homo sapiens, UniProt P08709).
T8 construct: rec. human Factor VIIa; purchased Novo Nordisk A/S
T8 sequence (P08709 61-212 limits assumed): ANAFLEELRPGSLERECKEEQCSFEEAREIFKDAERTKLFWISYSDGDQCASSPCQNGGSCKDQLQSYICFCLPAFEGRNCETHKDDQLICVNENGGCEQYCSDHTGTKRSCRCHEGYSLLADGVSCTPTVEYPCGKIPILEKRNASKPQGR
T8 sequence (P08709 213-466 limits assumed): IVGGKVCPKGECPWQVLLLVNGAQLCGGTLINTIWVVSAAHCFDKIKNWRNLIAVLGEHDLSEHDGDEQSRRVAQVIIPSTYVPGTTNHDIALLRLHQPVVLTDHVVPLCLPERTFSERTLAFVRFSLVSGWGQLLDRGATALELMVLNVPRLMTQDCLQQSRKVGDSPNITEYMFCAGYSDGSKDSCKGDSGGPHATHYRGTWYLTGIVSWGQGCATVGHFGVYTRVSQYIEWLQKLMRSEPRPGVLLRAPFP
Nature of the data set: Protease inhibitory activity assay, Factor VIIa. The settings on record: 1 μM inhibitor; Factor VIIa 300 nM; H-D-Ile-Pro-Arg-pNA 0.6 mM; 25° C. In kind it is biochemical. On the procedure: H--D--Ile--Pro--Arg--pNA
as §1

The subject of data set [15] is kidneys. The settings on record: in vivo, repeated injections of relatively high doses; rats, rabbits and dogs; cited from earlier work.
In data set [16] the target is T9, human Factor XIIa (Homo sapiens, UniProt P00748).
T9 construct: human Factor XIIa (30 nM); purchased Dr. Walt Kisiel, University of New Mexico, Albuquerque, NM
T9 sequence (P00748 20-372 limits assumed): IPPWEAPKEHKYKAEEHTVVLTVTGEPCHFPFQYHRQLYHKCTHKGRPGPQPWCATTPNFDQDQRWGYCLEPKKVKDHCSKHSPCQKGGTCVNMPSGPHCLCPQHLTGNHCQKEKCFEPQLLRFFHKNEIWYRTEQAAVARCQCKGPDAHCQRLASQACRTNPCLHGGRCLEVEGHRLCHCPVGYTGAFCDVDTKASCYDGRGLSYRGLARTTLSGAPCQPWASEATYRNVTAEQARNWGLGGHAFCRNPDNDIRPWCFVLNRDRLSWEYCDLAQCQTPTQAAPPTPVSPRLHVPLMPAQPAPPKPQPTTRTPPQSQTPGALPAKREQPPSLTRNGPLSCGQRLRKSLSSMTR
T9 sequence (P00748 373-615 limits assumed): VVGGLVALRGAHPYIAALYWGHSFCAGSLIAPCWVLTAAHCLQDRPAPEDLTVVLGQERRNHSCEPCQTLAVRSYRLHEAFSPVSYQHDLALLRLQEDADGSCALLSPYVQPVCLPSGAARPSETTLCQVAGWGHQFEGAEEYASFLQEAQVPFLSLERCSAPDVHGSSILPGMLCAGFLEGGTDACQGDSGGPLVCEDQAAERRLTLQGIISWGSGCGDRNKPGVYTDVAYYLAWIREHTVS
Nature of the data set: Protease inhibitory activity assay, Factor XIIa. In kind it is biochemical. The note with it: 1 μM inhibitor; Factor XIIa 30 nM; H-D-Pro-Phe-Arg-pNA 0.6 mM; 25° C. On the procedure:
human Factor XIIa (30 nM)
as §5, §1

Data set [17] has as its target T10, human Factor Xa (Homo sapiens, UniProt P00742).
T10 construct: human Factor Xa (3 nM); purchased Dr. I. Schousboe, Copenhagen, Denmark
As to the kind of experiment: Protease inhibitory activity assay, Factor Xa. The note with it: 1 μM inhibitor; Factor Xa 3 nM; MeO-CO-CHA-Gly-Arg-pNA 0.3 mM; 25° C. In kind it is biochemical. The protocol:
The reactions were incubated at 25° C. for ten minutes after which the appropriate chromogenic substrate was added to the final concentration listed in Table 2 and the final reaction was incubated for thirty minutes at 25° C. Amidolytic activity was measured at 405 nm or by fluorescence Em at 460 nm.

Data set [18] has as its target T11, rec. Protein Ca (activated protein C) (Homo sapiens, UniProt P04070).
T11 construct: purchased Novo Nordisk A/S
As to the kind of experiment: Protease inhibitory activity assay, activated protein C. In kind it is biochemical. The note with it: 1 μM inhibitor; rec. Protein Ca 5 nM; <Glu-Pro-Arg-pNA 0.6 mM; 25° C. The protocol: as §1
r.h. refers to recombinant human, h. refers to human, protein Ca refers t
activated protein C; APPH refers to the KunitzType inhibitor domain of […]

Data on five substances can be found in patent publication US5677146A, “Human amyloid protein precursor homolog and kunitz-type inhibitor” (Zymogenetics, Inc., priority 1995, dated 1997).

T5 sequence (P03952 20-390 limits assumed): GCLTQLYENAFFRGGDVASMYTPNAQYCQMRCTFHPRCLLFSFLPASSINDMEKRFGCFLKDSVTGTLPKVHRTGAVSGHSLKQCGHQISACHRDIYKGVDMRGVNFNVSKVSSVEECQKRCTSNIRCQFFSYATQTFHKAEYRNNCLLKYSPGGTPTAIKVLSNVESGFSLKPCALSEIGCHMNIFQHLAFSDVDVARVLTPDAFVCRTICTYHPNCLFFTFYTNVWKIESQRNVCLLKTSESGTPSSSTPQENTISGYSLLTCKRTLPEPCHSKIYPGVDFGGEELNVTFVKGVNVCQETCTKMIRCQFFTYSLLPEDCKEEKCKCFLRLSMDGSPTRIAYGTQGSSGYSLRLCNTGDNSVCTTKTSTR
T5 sequence (P03952 391-638 limits assumed): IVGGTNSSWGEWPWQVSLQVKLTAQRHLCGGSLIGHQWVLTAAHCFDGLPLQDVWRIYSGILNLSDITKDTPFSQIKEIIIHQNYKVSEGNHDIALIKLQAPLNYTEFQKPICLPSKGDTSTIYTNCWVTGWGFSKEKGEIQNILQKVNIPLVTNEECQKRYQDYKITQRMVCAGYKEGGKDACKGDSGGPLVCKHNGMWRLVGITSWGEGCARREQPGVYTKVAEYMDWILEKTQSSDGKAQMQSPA
T2 sequence (P00747 97-580 limits assumed): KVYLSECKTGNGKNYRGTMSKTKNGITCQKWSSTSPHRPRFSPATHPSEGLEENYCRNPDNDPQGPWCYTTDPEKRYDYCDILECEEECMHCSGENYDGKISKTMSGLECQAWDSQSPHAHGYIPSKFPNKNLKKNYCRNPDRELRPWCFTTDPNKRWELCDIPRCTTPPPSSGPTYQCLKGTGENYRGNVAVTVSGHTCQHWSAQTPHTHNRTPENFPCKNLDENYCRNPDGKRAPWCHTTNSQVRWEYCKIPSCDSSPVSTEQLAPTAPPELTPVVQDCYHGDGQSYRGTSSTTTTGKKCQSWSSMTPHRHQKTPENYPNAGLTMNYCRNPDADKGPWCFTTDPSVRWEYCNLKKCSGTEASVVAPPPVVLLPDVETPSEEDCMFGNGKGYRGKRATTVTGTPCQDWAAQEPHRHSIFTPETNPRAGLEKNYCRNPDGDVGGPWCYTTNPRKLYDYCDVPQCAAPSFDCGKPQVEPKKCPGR
T2 sequence (P00747 581-810 limits assumed): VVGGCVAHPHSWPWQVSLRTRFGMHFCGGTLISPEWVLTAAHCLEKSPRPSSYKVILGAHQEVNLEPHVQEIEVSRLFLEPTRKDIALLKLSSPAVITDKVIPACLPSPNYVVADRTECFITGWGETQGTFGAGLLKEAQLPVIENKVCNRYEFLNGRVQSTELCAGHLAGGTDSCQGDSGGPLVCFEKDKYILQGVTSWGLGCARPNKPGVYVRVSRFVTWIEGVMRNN
Chain of plasma kallikrein (P03952 20-638, species assumed): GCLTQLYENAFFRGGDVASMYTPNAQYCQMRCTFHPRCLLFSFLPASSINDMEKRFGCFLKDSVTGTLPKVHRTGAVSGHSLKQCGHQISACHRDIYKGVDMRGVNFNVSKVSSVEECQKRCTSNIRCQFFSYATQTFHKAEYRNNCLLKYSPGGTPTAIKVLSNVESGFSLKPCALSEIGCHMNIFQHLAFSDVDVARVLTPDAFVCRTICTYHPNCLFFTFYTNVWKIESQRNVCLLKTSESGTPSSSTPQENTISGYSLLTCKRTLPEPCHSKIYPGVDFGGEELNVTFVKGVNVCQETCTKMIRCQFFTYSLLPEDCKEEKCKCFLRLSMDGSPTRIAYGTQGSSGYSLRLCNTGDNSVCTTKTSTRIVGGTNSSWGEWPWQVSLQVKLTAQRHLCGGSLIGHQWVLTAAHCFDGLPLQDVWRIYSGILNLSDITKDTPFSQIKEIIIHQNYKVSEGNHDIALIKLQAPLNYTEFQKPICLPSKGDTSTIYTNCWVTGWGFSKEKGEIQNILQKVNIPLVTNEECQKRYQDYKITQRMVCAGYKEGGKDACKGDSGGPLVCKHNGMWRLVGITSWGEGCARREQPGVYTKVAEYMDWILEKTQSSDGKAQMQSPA
T10 sequence (P00742 41-179 limits assumed): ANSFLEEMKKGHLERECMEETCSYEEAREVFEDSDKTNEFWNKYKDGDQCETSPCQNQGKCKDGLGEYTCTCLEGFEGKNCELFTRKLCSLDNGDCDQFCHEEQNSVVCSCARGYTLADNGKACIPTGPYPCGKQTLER
T10 sequence (P00742 235-488 limits assumed): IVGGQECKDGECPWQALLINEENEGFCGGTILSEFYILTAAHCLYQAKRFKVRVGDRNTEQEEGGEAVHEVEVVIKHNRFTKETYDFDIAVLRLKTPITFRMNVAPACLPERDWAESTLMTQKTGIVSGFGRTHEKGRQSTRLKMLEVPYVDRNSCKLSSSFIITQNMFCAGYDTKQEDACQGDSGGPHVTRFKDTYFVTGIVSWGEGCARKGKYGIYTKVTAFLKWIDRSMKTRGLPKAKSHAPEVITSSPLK
T7 sequence (P03951 19-387 limits assumed): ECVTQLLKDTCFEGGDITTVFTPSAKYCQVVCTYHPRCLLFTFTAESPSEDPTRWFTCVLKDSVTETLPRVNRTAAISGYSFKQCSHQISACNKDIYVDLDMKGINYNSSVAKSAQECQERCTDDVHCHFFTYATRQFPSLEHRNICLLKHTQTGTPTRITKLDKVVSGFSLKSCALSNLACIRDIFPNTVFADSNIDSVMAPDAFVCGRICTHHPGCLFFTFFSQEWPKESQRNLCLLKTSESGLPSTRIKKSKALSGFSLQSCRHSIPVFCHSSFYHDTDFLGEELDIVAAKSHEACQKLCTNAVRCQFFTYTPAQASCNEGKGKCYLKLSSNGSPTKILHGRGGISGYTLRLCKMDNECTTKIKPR
T7 sequence (P03951 388-625 limits assumed): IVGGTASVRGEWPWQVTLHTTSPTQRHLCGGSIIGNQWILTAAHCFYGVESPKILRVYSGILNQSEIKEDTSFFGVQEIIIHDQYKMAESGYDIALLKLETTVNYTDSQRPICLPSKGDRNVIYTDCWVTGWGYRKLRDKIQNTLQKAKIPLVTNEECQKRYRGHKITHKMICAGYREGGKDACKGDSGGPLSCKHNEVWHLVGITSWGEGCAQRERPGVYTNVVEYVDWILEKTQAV
T11 sequence (P04070 43-197 limits assumed): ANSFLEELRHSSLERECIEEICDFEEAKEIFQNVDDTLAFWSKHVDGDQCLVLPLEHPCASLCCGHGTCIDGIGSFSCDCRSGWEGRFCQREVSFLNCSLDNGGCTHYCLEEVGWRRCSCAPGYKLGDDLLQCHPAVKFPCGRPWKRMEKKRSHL
T11 sequence (P04070 212-461 limits assumed): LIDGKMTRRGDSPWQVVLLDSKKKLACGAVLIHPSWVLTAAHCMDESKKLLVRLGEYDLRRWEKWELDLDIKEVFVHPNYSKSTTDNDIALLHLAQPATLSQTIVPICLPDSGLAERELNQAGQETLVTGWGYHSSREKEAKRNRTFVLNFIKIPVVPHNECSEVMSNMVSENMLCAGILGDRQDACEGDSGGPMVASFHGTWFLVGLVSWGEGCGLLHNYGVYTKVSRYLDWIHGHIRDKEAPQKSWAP

Take aprotinin (3-58, Arg15, Ala17, Ser42): the “plasma kallikrein inhibitory effect” value in data set [1] was “excellent”.
In the case of Aprotinin (1-58, Ala15), the effect on elastase result in data set [2] (literature) is reported as “weak effect”.
aprotinin (1-58, Val15): the “selectivity for granulocyte elastase” value in data set [2] (Wenzel and Tschesche 1981) is “relatively high selectivity”. Also, in data set [3], the “inhibitory effect on collagenase” value is on record as “inhibitory effect”.
With “APP: amyloid protein precursor Kunitz-type inhibitor domain (Example 2E, SEQ ID NO:17), expressed in yeast (EVCSEQAETGPCRAMISRWYFDVTEGKCAPFFYGGCGGNRNNFDTEEYCMAVCGSA)”, in data set [4], the “% Inhibition, Trypsin” value was determined as 99.7%. In addition, the “% Inhibition, Plasmin” value in [5] worked out at 90%. Further, in data set [6], the “% Inhibition, Leukocyte Elastase” value was determined as 6%. Besides, the “% Inhibition, GI Kallikrein” value in data set [7] amounted to 82%. The “% Inhibition, Cathepsin G” value in data set [8] was determined as 16%. Also, in data set [9], the “% Inhibition, PL Kallikrein” value came to 71%. For the same substance, the “% Inhibition, Urokinase” value in data set [10] was 0%. Further, the “% Inhibition, Chymotrypsin” value in data set [11] is given as 94%.
As for aprotinin [BPTI], the “% Inhibition, Trypsin” value in [4] came to 100%. The “% Inhibition, Plasmin” value in [5] is given as 100%. Besides, the “% Inhibition, h. Factor XIa” value in data set [12] stood at 59%. The “% Inhibition, Leukocyte Elastase” value in data set [6] is 1%. For the same substance, the “blood loss in connection with cardiac surgery” value in data set [13] is listed as “significantly reduces blood loss”. In data set [8], the “% Inhibition, Cathepsin G” value came to 4%. In addition, the “% Inhibition, r.h. Factor VIIa” value in data set [14] was found to be 1%. Also, the nephrotoxic effect entry in data set [15] was “nephrotoxic effect”. For the same substance, the “% Inhibition, PL Kallikrein” value in [9] is reported as 83%. Besides, in [16], the “% Inhibition, h. Factor XIIa” value amounted to 2%. The “% Inhibition, Urokinase” value in [10] stood at 1%. For the same substance, the “% Inhibition, h. Factor Xa” value in [17] was found to be 1%. Also, in [18], the “% Inhibition, r.h. Protein Ca” value is recorded as 38%.
